US11058678B2 (Enanta Pharmaceuticals, Inc., priority 2018, dated 2021)

Test system: HBV (2.2.15 cells)
Experiment: Antiviral activity in 2.2.15 cells: reduction of viral product accumulation (qPCR of lysates, HBsAg or HBeAg ELISA)
Format: cell-based, hepatitis B virus (HBV)
Settings: Hepatitis B virus, 120 h, day 5 post treatment, 50% reduction of viral product accumulation in lysates or supernatants vs no drug controls, readout (qPCR, HBsAg, HBeAg) not specified
Description: 2.2.15 cells are passaged upon attaining confluency in DMEM/F12 media in the presence of 10% FBS, Penn/Strep, and 250 ug/mL G418. Novel compounds are 5 fold serially diluted in DMSO and added to 96 well plates containing 35,000 cells/well at a 1:200 dilution so that the final concentration of DMSO is 0.5%. On day 5, post treatment cell lysates and supernatants are harvested for analysis.
Cells are lysed using Agilent Sidestep Lysis buffer, diluted 1:100 and quantified via quantitative real time PCR. Commercially available ELISA kits are used to quantitate the viral proteins HBsAg (Alpco) or HBeAg (US Biological) by following the manufacturer's recommended protocol after diluting samples to match the linear range of their respective assays. Irrespective of readout, compound concentrations that reduce viral product accumulation in the cell lysates or supernatants by 50% relative to no drug controls (EC50) are reported; EC50 ranges are as follows: A<0.1 μM; B 0.1-1 μM; C>1 μM.

With `CC(C)[C@@H]1Cc2c(cc(-c3cnco3)c3c2CCO3)-c2cc(=O)c(C(=O)O)cn21` [Example 91, (S)-5-isopropyl-12-(oxazol-5-yl)-9-oxo-2,3,4,9-tetrahydro-5H-furo[3,2-f]pyrido[2,1-a]isoquinoline-8-carboxylic Acid] the EC50 was less than 100 nM.
In the case of `Cn1nccc1-c1cc2c(c3c1OCC3)C[C@@H](C(C)(C)C)n1cc(C(=O)O)c(=O)cc1-2` [Example 68, (S)-5-(tert-butyl)-12-(1-methyl-1H-pyrazol-5-yl)-9-oxo-2,3,4,9-tetrahydro-5H-furo[3,2-f]pyrido[2,1-a]isoquinoline-8-carboxylic Acid], the EC50 is reported as less than 100 nM.
`CC(C)(C)[C@@H]1Cc2c(cc(-c3cccnc3)c3c2CCO3)-c2cc(=O)c(C(=O)O)cn21` [Example 75, (S)-5-(tert-butyl)-9-oxo-12-(pyridin-3-yl)-2,3,4,9-tetrahydro-5H-furo[3,2-f]pyrido[2,1-a]isoquinoline-8-carboxylic Acid] showed an EC50 of less than 100 nM.
With `CC(C)(C)[C@@H]1Cc2c(cc(C3CCOC3)c3c2CCO3)-c2cc(=O)c(C(=O)O)cn21` (stereo partly drawn) [Example 130, (5S)-5-(tert-butyl)-9-oxo-12-(tetrahydrofuran-3-yl)-2,3,4,9-tetrahydro-5H-furo[3,2-f]pyrido[2,1-a]isoquinoline-8-carboxylic Acid] the EC50 was less than 100 nM.
Work on `Cn1cc(-c2cc3c(c4c2OCC4)C[C@@H](C(C)(C)C)n2cc(C(=O)O)c(=O)cc2-3)cn1` [Example 69, (S)-5-(tert-butyl)-12-(1-methyl-1H-pyrazol-4-yl)-9-oxo-2,3,4,9-tetrahydro-5H-furo[3,2-f]pyrido[2,1-a]isoquinoline-8-carboxylic Acid] yielded an EC50 of less than 100 nM.
`COCCCOc1cc2c(cc1-c1ccc(OC3CC3)cc1)-c1cc(=O)c(C(=O)O)cn1[C@H](C(C)(C)C)C2` [Example 40, (S)-6-(tert-butyl)-10-(4-cyclopropoxyphenyl)-9-(3-methoxypropoxy)-2-oxo-6,7-dihydro-2H-pyrido[2,1-a]isoquinoline-3-carboxylic Acid] showed an EC50 greater than 1000 nM.
`Cn1ccc(-c2cc3c(c4c2OCC4)C[C@@H](C(C)(C)C)n2cc(C(=O)O)c(=O)cc2-3)n1` [Example 70, (S)-5-(tert-butyl)-12-(1-methyl-1H-pyrazol-3-yl)-9-oxo-2,3,4,9-tetrahydro-5H-furo[3,2-f]pyrido[2,1-a]isoquinoline-8-carboxylic Acid] showed an EC50 of less than 100 nM.
`CC(C)(C)[C@@H]1Cc2c(cc(N3CC4(CCO4)C3)c3c2CCO3)-c2cc(=O)c(C(=O)O)cn21` [Example 120, (S)-5-(tert-butyl)-9-oxo-12-(1-oxa-6-azaspiro[3.3]heptan-6-yl)-2,3,4,9-tetrahydro-5H-furo[3,2-f]pyrido[2,1-a]isoquinoline-8-carboxylic Acid] showed an EC50 greater than 1000 nM.
Compound `COCCCOc1cc2c(cc1-c1ccn(C)n1)-c1cc(=O)c(C(=O)O)cn1[C@H]1[C@@H]2COC1(C)C` [Example 124, (3aS,12bR)-11-(3-methoxypropoxy)-3,3-dimethyl-10-(1-methyl-1H-pyrazol-3-yl)-7-oxo-3,3a,7,12b-tetrahydro-1H-furo[3,4-c]pyrido[2,1-a]isoquinoline-6-carboxylic Acid] has an EC50 of less than 100 nM.
`COCCCOc1cc2c(cc1-c1cccc(OC)c1)-c1cc(=O)c(C(=O)O)cn1[C@H]1[C@@H]2COC1(C)C` [Example 140, (3aS,12bR)-10-(3-methoxyphenyl)-11-(3-methoxypropoxy)-3,3-dimethyl-7-oxo-3,3a,7,12b-tetrahydro-1H-furo[3,4-c]pyrido[2,1-a]isoquinoline-6-carboxylic Acid] was tested, and the EC50 was less than 100 nM.
`CC(C)(C)[C@@H]1Cc2c(cc(N3CCOCC3)c3c2CCO3)-c2cc(=O)c(C(=O)O)cn21` [Example 118, (S)-5-(tert-butyl)-12-morpholino-9-oxo-2,3,4,9-tetrahydro-5H-furo[3,2-f]pyrido[2,1-a]isoquinoline-8-carboxylic Acid] gave an EC50 of less than 100 nM.
